Measured values reported in ChEMBL document CHEMBL1143901, “Lead identification of 2-iminobenzimidazole antagonists of the chemokine receptor CXCR3” (Bioorg Med Chem Lett, 2008).

Experiments:
[1] = molecular target: T1, C-X-C chemokine receptor type 3 (Homo sapiens, UniProt P49682); assay: Displacement of [125I]-CXCL10 from human CXCR3 expressed in CHO cell membrane; type: cell membranes
T1 sequence (P49682 whole entry): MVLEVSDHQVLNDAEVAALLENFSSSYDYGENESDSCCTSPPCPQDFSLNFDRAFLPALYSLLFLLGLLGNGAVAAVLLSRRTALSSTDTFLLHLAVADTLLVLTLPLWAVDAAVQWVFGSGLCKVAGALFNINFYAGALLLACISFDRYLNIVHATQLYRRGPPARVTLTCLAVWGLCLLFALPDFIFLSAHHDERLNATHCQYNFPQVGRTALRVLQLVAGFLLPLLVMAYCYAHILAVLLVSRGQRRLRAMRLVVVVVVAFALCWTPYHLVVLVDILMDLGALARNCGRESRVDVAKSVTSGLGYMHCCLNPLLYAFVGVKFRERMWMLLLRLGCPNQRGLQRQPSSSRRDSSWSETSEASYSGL

[2] = molecular target: T1, C-X-C chemokine receptor type 3; assay: Antagonist activity at human CXCR3 expressed in CHO cell […] assessed as inhibition of calcium flux by FLIPR; type: functional, cell-based
[3] = molecular target: T2, C-X-C chemokine receptor type 3 (Mus musculus, UniProt O88410); assay: Displacement of [125I]-CXCL10 from mouse CXCR3 expressed in CHO cell membrane; type: cell membranes
T2 sequence (O88410 whole entry): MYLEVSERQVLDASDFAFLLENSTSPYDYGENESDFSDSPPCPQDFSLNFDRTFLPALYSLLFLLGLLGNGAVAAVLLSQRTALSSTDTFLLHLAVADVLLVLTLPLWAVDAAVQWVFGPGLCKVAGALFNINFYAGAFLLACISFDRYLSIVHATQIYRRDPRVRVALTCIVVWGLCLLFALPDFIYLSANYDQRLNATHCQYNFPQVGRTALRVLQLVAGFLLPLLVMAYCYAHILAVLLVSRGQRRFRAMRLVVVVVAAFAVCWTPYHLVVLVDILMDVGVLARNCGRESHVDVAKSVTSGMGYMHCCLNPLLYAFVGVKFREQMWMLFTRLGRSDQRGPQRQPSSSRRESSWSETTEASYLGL

[4] = Metabolic stability in mouse liver microsomes assessed as half life; type: ADME, Microsome

SMILES	IC50 [1]	IC50 [2]	IC50 [3]	half-life [4]
CN(CCCn1c(=N)n(CC(=O)c2ccc(Cl)cc2)c2cccc(Cl)c21)C(=O)Cc1ccccc1	300 nM	70 nM	1400 nM	
CN(CCCn1c(=N)n(CC(=O)c2ccc(Cl)cc2)c2cccc(Cl)c21)C(=O)c1ccccn1	30 nM	20 nM	200 nM	
CN(CCCn1c(=N)n(CC(=O)c2ccc(Cl)cc2)c2cccc(Cl)c21)C(=O)c1ccc2ccccc2c1	15 nM	40 nM	500 nM	9.5 min
CCc1cccc2c1n(CCCN(C)C(=O)Cc1ccccc1)c(=N)n2CC(=O)c1ccc(Cl)cc1	200 nM	100 nM	1800 nM	
CN(CCCCn1c(=N)n(CC(=O)c2ccc(Cl)cc2)c2cccc(Cl)c21)C(=O)Cc1ccccc1	400 nM	400 nM		
N=c1n(CC(=O)c2ccc(Cl)cc2)c2cccc(Cl)c2n1C[C@@H]1CCCN(C(=O)c2cccc3cccnc23)C1	15 nM	20 nM	60 nM	
CN(CCn1c(=N)n(CC(=O)c2ccc(Cl)cc2)c2cccc(Cl)c21)C(=O)Cc1ccccc1	400 nM	300 nM	1500 nM	
CC(=O)N(C)CCn1c(=N)n(CC(=O)c2ccc(Cl)cc2)c2ccccc21	1300 nM	3400 nM		
CN(CCn1c(=N)n(CC(=O)c2ccc(Cl)cc2)c2ccccc21)C(=O)C1CCCCC1	500 nM	900 nM		
CCOC(=O)CCn1c(=N)n(CC(=O)c2ccc(Cl)cc2)c2ccccc21	1200 nM	2500 nM		
CN(CCn1c(=N)n(CC(=O)c2ccc(Cl)cc2)c2ccccc21)C(=O)c1ccccc1	300 nM	2300 nM		
CCCn1c(=N)n(CC(=O)c2ccc(Cl)cc2)c2ccccc21	1100 nM			
Cn1c(=N)n(CC(=O)c2ccc(Cl)cc2)c2ccccc21	700 nM			
N=c1n(CC(=O)c2ccc(Cl)cc2)c2cccc(Cl)c2n1CC1CCCN(C(=O)c2cccc3cccnc23)C1 (centres undefined)	15 nM	20 nM	80 nM	
COc1ccccc1C(=O)N(C)CCCn1c(=N)n(CC(=O)c2ccc(Cl)cc2)c2cccc(Cl)c21	50 nM	20 nM	150 nM	5.4 min
N=c1n(CC(=O)c2ccc(Cl)cc2)c2cccc(Cl)c2n1CCCN(C(=O)c1cccc2cccnc12)C1CC1	20 nM	10 nM	1100 nM	
CN(CCn1c(=N)n(CC(=O)c2ccc(Cl)cc2)c2ccccc21)C(=O)Cc1ccccc1	400 nM	800 nM		
N=c1n(CC(=O)c2ccc(Cl)cc2)c2cccc(Cl)c2n1CC[C@@H]1CCCN1C(=O)c1cccc2cccnc12	8 nM	20 nM	40 nM	7.5 min
N=c1n(CC(=O)c2ccc(Cl)cc2)c2cccc(Cl)c2n1C[C@H]1CCCN(C(=O)c2cccc3cccnc23)C1	16 nM	20 nM	70 nM	
CN(CCCn1c(=N)n(CC(=O)c2ccc(Cl)cc2)c2cccc(Cl)c21)C(=O)C(C)(C)C	600 nM	400 nM		
CN(CCCn1c(=N)n(CC(=O)c2ccc(Cl)cc2)c2cccc(Cl)c21)C(=O)c1ccccc1	300 nM	20 nM	800 nM	
CN(Cc1ccccc1)C(=O)CCn1c(=N)n(CC(=O)c2ccc(Cl)cc2)c2ccccc21	400 nM	200 nM		
CN(CCCn1c(=N)n(CC(=O)c2ccc(Cl)cc2)c2cccc(Cl)c21)C(=O)c1cccc2cccnc12	20 nM	20 nM	50 nM	15 min
CN(Cc1ccccc1)C(=O)Cn1c(=N)n(CC(=O)c2ccc(Cl)cc2)c2ccccc21	2200 nM			
CCn1c(=N)n(CC(=O)c2ccc(Cl)cc2)c2ccccc21	700 nM	3500 nM		
